# Source: patent publication US7119256B2, “Gene encoding acetolactate synthase” (priority 2000, dated 2006)
# Tests used:
# wild type ALS protein [1] = target: T1, wild type ALS protein (Oryza sativa subsp. japonica, UniProt Q6K2E8); assay: Herbicide sensitivity of partially purified wild type ALS protein (acetoin colorimetric ALS activity); assay type: biochemical, rice (Kinmaze); set-up: the wild type ALS protein was separated and purified in the same manner and used for the experiment; from tissue; host or cells: wild type rice (Kinmaze) cultured cells, liquid culture; ammonium sulfate, Sephadex G-25, HiTrap Q
# T1 sequence (Q6K2E8 44-644): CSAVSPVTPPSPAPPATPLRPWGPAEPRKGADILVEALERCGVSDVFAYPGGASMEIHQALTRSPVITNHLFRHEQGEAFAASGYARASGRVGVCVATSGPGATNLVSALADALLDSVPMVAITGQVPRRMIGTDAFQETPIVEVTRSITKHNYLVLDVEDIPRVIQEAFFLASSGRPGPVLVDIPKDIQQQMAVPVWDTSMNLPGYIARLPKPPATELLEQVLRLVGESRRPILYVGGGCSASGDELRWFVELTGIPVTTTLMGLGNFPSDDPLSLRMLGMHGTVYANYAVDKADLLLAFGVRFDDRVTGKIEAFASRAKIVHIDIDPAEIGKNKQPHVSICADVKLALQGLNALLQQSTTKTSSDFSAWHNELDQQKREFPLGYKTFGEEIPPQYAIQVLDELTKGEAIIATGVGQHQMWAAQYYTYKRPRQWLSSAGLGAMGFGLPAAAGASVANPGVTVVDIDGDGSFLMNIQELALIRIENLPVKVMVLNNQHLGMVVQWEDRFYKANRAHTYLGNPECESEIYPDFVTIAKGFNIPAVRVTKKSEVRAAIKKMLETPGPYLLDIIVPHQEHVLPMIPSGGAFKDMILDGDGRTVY
# mutant ALS protein = mutant ALS protein (Oryza sativa subsp. japonica, UniProt Q6K2E8, S627I/W548L); assay: Herbicide sensitivity of crude mutant ALS (W548L and S627I) expressed in E. coli, in presence of valine; assay type: biochemical, rice; set-up: the cDNA containing a full length mutant ALS gene could be obtained; made in house; host or cells: E. coli JM 105, pGEX-4T-3; crude enzyme solution; details: crude enzyme from E. coli, valine added
# mutant ALS protein, sequence (Q6K2E8 44-644 W548L/S627I): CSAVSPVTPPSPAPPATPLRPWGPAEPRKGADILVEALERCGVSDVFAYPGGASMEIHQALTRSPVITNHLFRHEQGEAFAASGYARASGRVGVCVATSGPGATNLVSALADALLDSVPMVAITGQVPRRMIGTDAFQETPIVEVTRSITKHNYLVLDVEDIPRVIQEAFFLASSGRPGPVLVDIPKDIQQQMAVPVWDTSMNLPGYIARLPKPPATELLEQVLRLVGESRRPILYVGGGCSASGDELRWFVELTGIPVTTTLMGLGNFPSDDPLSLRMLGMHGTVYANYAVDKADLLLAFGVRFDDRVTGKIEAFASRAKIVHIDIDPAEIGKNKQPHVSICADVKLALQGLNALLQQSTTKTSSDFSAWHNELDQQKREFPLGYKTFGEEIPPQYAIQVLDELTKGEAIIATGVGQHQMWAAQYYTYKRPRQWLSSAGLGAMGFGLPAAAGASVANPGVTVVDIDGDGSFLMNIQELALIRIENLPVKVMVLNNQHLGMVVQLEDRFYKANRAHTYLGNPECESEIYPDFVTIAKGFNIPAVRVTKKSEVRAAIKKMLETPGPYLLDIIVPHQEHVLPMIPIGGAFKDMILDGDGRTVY
# Procedure: (§1) Preparation and purification of ALS from E. coli were performed by the following method. First, a pellet of the transformant E. coli stored at −80° C. was suspended in ALS extraction buffer (potassium phosphate buffer (pH 7.5) containing 30% glycerol and 0.5 mM MgCl2). Specifically, 2.5 ml of the buffer was added to the pellet obtained from 50 ml of the culture solution. The suspension was subjected to ultrasonication (Heat Systems-Ultrasonics, Sonicator W-225R, micro chip, output control 8, interval of approximately 1 sec, twice (40 sec each)), and subjected to centrifugation at 15000×g, 4° C. for 20 min, thereby obtaining the supernatant as a crude enzyme solution.
# (§2) Herbicide sensitivity of mutant ALS protein was examined using the crude enzyme solution obtained in Example 4. Herbicide sensitivity test was performed in the manner same as that in Example 2. In the herbicide sensitivity test, three herbicides, bispyribac-sodium, pyrithiobac-sodium, and pyriminobac were used as PC herbicides; four drugs, chlorsulfuron, bensulfuron-methyl, pyrazosulfuron-ethyl and imazosulfuron were used as sulfonylurea herbicides; and two drugs, imazaquin, and imazapyr were used as imidazolinon herbicides.
# Solutions containing these herbicides at certain concentrations (bispyribac-sodium and pyrithiobac-sodium were aqueous solutions, others were acetone solutions) were added to reaction solutions before addition of the mutant ALS protein. The final concentration of acetone was 1%. In addition, since an ALS protein from the rice cDNA expressed within E. coli is insusceptible to valine (Kil et al., J. Biochem. Mol. Biol. 31 287–295, 1998), a herbicide sensitivity test was performed under conditions in which ALS activity derived from E. coli was inhibited with valine.
# [2] = system: callus of the wild type rice plant (Nippon-bare); assay: Bispyribac-sodium sensitivity of callus of wild type rice plant; assay type: cell-based
# [3] = system: rice plant transformed with the mutant ALS gene; assay: Foliar spray of bispyribac-sodium on transformant rice plants, growth survey; assay type: in vivo, rice (Nippon-bare); details: 1 kg of a.i./ha with 0.2% surfactant K, sprayed over leaves and stems; about 40 days after spraying
# Excerpt: Of 80 hygromycin resistant transformant rice plants potted, those which grew normally at the leaf stage 5 were 27 plants to which the mutant ALS gene had been introduced and 46 plants to which the wild type ALS gene had been introduced. Plants containing the wild type ALS gene introduced therein tended to grow healthier than those containing the mutant ALS gene therein. At this time, 4 plants containing the mutant ALS gene introduced therein and 5 plants containing the wild type ALS gene introduced therein were appropriately selected, and 1 kg of a.i./ha bispyribac-sodium salt supplemented with 0.2% surfactant K was sprayed over the leaves and stems. In FIG. 40, the plant length A was about 90 cm.
# [4] = system: callus of a rice plant (Nippon-bare) transformed with a mutant ALS gene; assay: Bispyribac-sodium sensitivity of calli of rice transformed with the mutant ALS gene; assay type: cell-based
# Procedure: Simultaneously with the above described potting, part of the calli which had not redifferentiated (9 calli) (FIG. 35) was sub-cultured on solid media for production of a bispyribac-sodium resistant callus used in Example 1. The solid media contained 10 μM bispyribac-sodium. Thus, 6 out of 9 calli grew normally. […] Accordingly, 6 calli grown on a solid medium containing 10 μM bispyribac-sodium were all shown to have strong bispyribac-sodium resistance.
# wild type ALS protein [5] = target: T1, wild type ALS protein; assay: Herbicide sensitivity of crude wild type ALS expressed in E. coli, in presence of valine; assay type: biochemical, rice; set-up: one type of cDNA containing a full length ALS gene could be obtained from a cDNA library derived from the wild type; made in house; host or cells: E. coli JM 105, pGEX-2T; crude enzyme solution (sonicate supernatant); details: crude enzyme from E. coli, valine added
# Procedure: as §1
# as §2, with “herbicides. […]” for “herbicides.”
SMILES,IC50 (wild type ALS protein [1]),resistance of the mutant ALS protein to herbicide compared to wild type ALS protein (mutant ALS protein),drug sensitivity of wild type callus [2],growth of plant containing the mutant ALS gene after spraying [3],mutant ALS activity in the presence of herbicide (mutant ALS protein),calli that grew normally on solid medium ([4]; 10 μM bispyribac-sodium),drug sensitivity of transformant callus in liquid culture ([4]; one of the 6 normally growing calli),wild type ALS activity in the presence of herbicide (wild type ALS protein [5])
"COc1nc(C)nc(NC(=O)NS(=O)(=O)c2ccccc2Cl)n1 [Chlorsulfuron, chlorsulfuron]",0.0173 µM,moderate,–,–,–,–,–,–
"COc1cc(OC)nc(Oc2cccc(Oc3nc(OC)cc(OC)n3)c2C(=O)[O-])n1.[Na+] [Bispyribac-sodium, bispyribac-sodium]",0.00563 µM,best resistance,showed bispyribac-sodium sensitivity,grew almost normally,not inhibited at all,6 out of 9,showed bispyribac-sodium resistance,inhibited
